Assay results taken from US11839214B2, “Fungicidal mixture comprising substituted pyridines” (BASF SE, priority 2017, dated 2023).

Legend:
Assay type in all cases: cell-based
Septoria tritici = test: Activity against leaf blotch on wheat caused by Septoria tritici (microtiterplate test)
Pyricularia oryzae = test: microbe, parasite or virus in culture; settings: for Observed efficacy: single active compound
Botrytis cinerea = test: Activity against the grey mold Botrytis cinerea in the microtiterplate test
[1] = Zymoseptoria tritici, 168 h, single active, 4 ppm, read-out: Observed efficacy
[2] = Botrytis cinerea, 168 h, single active compound, read-out: Observed efficacy
[3] = Pyricularia oryzae, 168 h, read-out: Observed efficacy
[4] = Zymoseptoria tritici, 168 h, single active, 0.063 ppm, read-out: Observed efficacy
[5] = Zymoseptoria tritici, 168 h, single active, 0.004 ppm, read-out: Observed efficacy
[6] = Zymoseptoria tritici, 168 h, read-out: Observed efficacy

CC1(C)CCC(Cc2ccc(Cl)cc2)C1(O)Cn1cncn1 (stereo not shown) [Metconazol]
Observed efficacy (Septoria tritici; single active, 0.063 ppm): 30%

Cc1cccc(-n2nnn(C)c2=O)c1COc1ccn(-c2ccc(Cl)cc2)n1 [Methyltetraprol, metyltetrapole]
Observed efficacy (Septoria tritici; single active, 0.004 ppm): 5% | Observed efficacy (Septoria tritici; single active, 0.016 ppm): 22% | Observed efficacy (Pyricularia oryzae; 0.016 ppm): 24%

COc1cc(C)c(C(=O)c2c(OC)ccc(Br)c2C)c(OC)c1OC [Metrafenon, metrafenone]
inhibition of growth at 4 ppm (Septoria tritici; [1]): 4% | inhibition of growth at 16 ppm (Septoria tritici; Zymoseptoria tritici, 168 h, single active, 16 ppm, read-out: Observed efficacy): 16% | inhibition of growth at 4 ppm (Botrytis cinerea; [2]): 3% | inhibition of growth at 16 ppm (Botrytis cinerea; Botrytis cinerea, 168 h, single active compound, 16 ppm, read-out: Observed efficacy): 18% | inhibition of growth at 1 ppm (Pyricularia oryzae; [3]): 2% | inhibition of growth at 4 ppm (Pyricularia oryzae; [3]): 7%

C=CCOC1=NS(=O)(=O)c2ccccc21 [Probenazol, probenazole]
inhibition of growth at 4 ppm (Septoria tritici; [1]): 4% | inhibition of growth at 63 ppm (Botrytis cinerea; Botrytis cinerea, 168 h, single active compound, 63 ppm, read-out: Observed efficacy): 22% | inhibition of growth at 4 ppm (Pyricularia oryzae; [3]): 2% | inhibition of growth at 16 ppm (Pyricularia oryzae; [3]): 12%

OC(Cc1ccccc1Cl)(Cn1nc[nH]c1=S)C1(Cl)CC1 (stereo not shown) [Prothioconazol, prothioconazole]
inhibition of growth at 0.063 ppm (Septoria tritici; [4]): 1% | inhibition of growth at 0.25 ppm (Pyricularia oryzae; [3]): 12%

CON(C(=O)c1cn(C)nc1C(F)F)C(C)Cc1c(Cl)cc(Cl)cc1Cl (stereo not shown) [Pydiflumetofen, pydiflumetofen]
Observed efficacy (Pyricularia oryzae; 1 ppm): 44%

COC(=O)N(OC)c1ccccc1COc1ccn(-c2ccc(Cl)cc2)n1 [Pyraclostrobin, pyraclostrobin]
inhibition of growth at 0.004 ppm (Septoria tritici; [5]): 7% | inhibition of growth at 0.016 ppm (Septoria tritici; Zymoseptoria tritici, 168 h, single active, 0.016 ppm, read-out: Observed efficacy): 52% | inhibition of growth at 0.001 ppm (Pyricularia oryzae; [3]): 4% | inhibition of growth at 0.004 ppm (Pyricularia oryzae; [3]): 14%

O=C1CCc2cccc3c2N1CC3 [Pyroquilon, pyroquilon]
inhibition of growth at 1 ppm (Botrytis cinerea; Botrytis cinerea, 168 h, read-out: Observed efficacy): 2% | inhibition of growth at 1 ppm (Pyricularia oryzae; [3]): 7%

S1SSSSSSS1 [Sulfur, sulfur]
inhibition of growth at 1 ppm (Septoria tritici; [6]): 18% | inhibition of growth at 4 ppm (Pyricularia oryzae; [3]): 54%

FC(F)C(F)(F)OCC(Cn1cncn1)c1ccc(Cl)cc1Cl (stereo not shown) [Tetraconazol, tetraconazole]
inhibition of growth at 0.004 ppm (Septoria tritici; [5]): 6% | inhibition of growth at 0.063 ppm (Septoria tritici; [4]): 12% | inhibition of growth at 0.063 ppm (Botrytis cinerea; Botrytis cinerea, 168 h, single active compound, 0.063 ppm, read-out: Observed efficacy): 5% | inhibition of growth at 0.063 ppm (Pyricularia oryzae; [3]): 7%

Cc1cccc2sc3nncn3c12 [Tricyclazol, tricyclazole]
inhibition of growth at 4 ppm (Botrytis cinerea; [2]): 2% | inhibition of growth at 4 ppm (Pyricularia oryzae; [3]): 6%

CC1(C)CCC(=Cc2ccc(Cl)cc2)C1(O)Cn1cncn1 (stereo not shown) [Triticonazol, triticonazole]
inhibition of growth at 1 ppm (Pyricularia oryzae; [3]): 10%

OCC1=C[C@H](N[C@H]2C[C@H](CO)[C@@H](O[C@@H]3O[C@H](CO)[C@@H](O)[C@H](O)[C@H]3O)[C@H](O)[C@H]2O)[C@H](O)[C@@H](O)[C@@H]1O [Validamycin, validamycin]
inhibition of growth at 63 ppm (Pyricularia oryzae; [3]): 10%

Cc1nc2c(F)c(F)ccc2cc1Oc1cccc(F)c1C(C)(C)O [drawing 29]
inhibition of growth at 4 ppm (Pyricularia oryzae; [3]): 50%

Cc1nc2c(F)c(F)ccc2cc1Oc1cccc(F)c1C(C)(C)O [drawing 43]
inhibition of growth at 1 ppm (Septoria tritici; [6]): 45%

Mancozeb
Observed efficacy (Septoria tritici; single active, 1 ppm): 16%

inpyrfluxam
Observed efficacy (Septoria tritici; single active, 0.25 ppm): 22% | Observed efficacy (Botrytis cinerea; single active compound, 0.25 ppm): 44%

metiram
Observed efficacy (Septoria tritici; single active, 1 ppm): 2% | Observed efficacy (Septoria tritici; single active, 4 ppm): 4% | Observed efficacy (Pyricularia oryzae; 4 ppm): 8%

prohexadione-calcium [Prohexadion-ca]
Observed efficacy (Septoria tritici; single active, 63 ppm): 12% | Observed efficacy (Pyricularia oryzae; 63 ppm): 8%
